From patent US7585896B2, “Composition for the prevention and treatment of kidney dysfunctions and diseases” (Sigma-Tau Industrie Farmaceutiche Riunite S.p.A., priority 1999, dated 2009)

What was measured:
[1] = system: ochratoxin A-induced renal toxic lesions in Wistar rats; experiment: Protective activity against renal abnormalities induced by ochratoxin A; format: in vivo; settings: for ALP (alkaline phosphatase) / GGT (gamma-glutamyl transferase) / NAG (N-acetyl-β-D-glucosaminidase): 24-hour urine, 300 mg/kg (of each drug) oral for 10 days with ochratoxin A; for effect on enzymuria induced by ochratoxin and serum creatinine levels: ochratoxin-intoxicated rats, result in words
Excerpt: In experimental animals, particularly rats, it is possible to reproduce tubulo-interstitial nephropathy similar to that encountered in man and known as Balkans Endemic Nephropathy (BEN) by means of the administration of a mycotoxin produced by Aspergillus ochraceus which is present as a contaminant in various foodstuffs and is known as ochratoxin A (Kniper-Goodman T., Scott P., Biomed. Environ. Sci., 2, 179, 1989).
The administration of small amounts of this toxin causes a series of renal abnormalities in the rat with a reduction in glomerular filtration and lesions at the level of the proximal tubule to such an extent as to cause renal atrophy.
In this test a batch of Wistar rats with a mean body weight of 200 g was divided into various groups, one of which served as a control group, while another was administered […] of ochratoxin (Sigma Chemical, St. Louis, Mo. U.S.A.) by gastric probe every 48 hours for a period of ten days. The remaining groups, in addition to ochratoxin, also received oral administrations of 300 mg/ks of acetyl L-carnitine or 300 mg/kg of propionyl L-carnitine or a combination of the two carnitines for the entire 10-day treatment period.
At the end of treatment, the animals were placed in metabolic cages and 24-hour urine was submitted to spectrophotometric evaluation of the enzymes alkaline phosphatase (ALP), gamma-glutamyl transferase (GGT) and N-acetyl-β-D-glucosaminidase (NAG) as indicators of renal damage.
Serum creatinine concentrations were also measured.

isolated perfused kidney = experiment: Protective activity against lithium-induced nephrotoxicity in the isolated perfused kidney (histamine release); design: species or system Wistar rats; settings: for Percentage changes vs controls in histamine released: lithium 6 mEq/L after 20 min perfusion of carnitine 200 mM/L; for effect on histamine release induced by the renal toxic action of lithium: isolated perfused kidney, result in words
Excerpt: This test was used to assess the protective activity of the combination of acetyl L-carnitine plus propionyl L-carnitine against the well-known nephrotoxic activity of lithium. Lithium presents a particular tropism at the renal tubule level and can cause tubular necrosis.
In this test Wistar rates with a mean body weight of 400 g were anaesthetised and nephrectomised. The excised kidneys were perfused according to the technique described by Shureck (Shureck H. J., Pflügers Arch., 354, 1975) as modified by Maach (Maach T., Kidney Int., 30, 142, 1986; Maach T., Ann. J. Physiol., 238, 1980).
Immediately after isolation of the kidney, the renal artery and outflow vein were catheterised and the resulting preparation was placed in a chamber containing a Krebs solution heated to 37° C. The oxygenised Krebs solution was pumped into the system by means of a pulsatile pump at a rate of 0.8 ml/min/g.
Lithium was administered via the perfusion pump at a dose of 6 mEq/L after perfusion during the previous 20 minutes of a solution containing acetyl L-carnitine or propionyl L-carnitine (200 mM/L) or a combination of the two compounds.
After the lithium infusion, the venous perfusion fluid was collected at five-minute intervals for fifteen minutes and its histamine content was measured with a fluorometric method (Hakanson R., Anal. Biochem., 47, 356, 1972). Histamine release is considered a marker of the severity of tubular damage (Bertelli A., Drugs Exptl. Clin Res., 7, 53, 1981).

[2] = system: glycerol-induced renal insufficiency in male Sprague-Dawley rats; experiment: Protective activity against glycerol-induced renal insufficiency; format: in vivo; settings: for Urea (plasma): glycerol-injected rats, 24 h after injection; for effect on the elevated plasma urea and creatinine concentrations: glycerol-induced acute renal insufficiency, oral or intraperitoneal, result in words
[3] = 5 minutes post-lithium-infusion
[4] = 10 minutes post-lithium-infusion
[5] = 15 minutes post-lithium-infusion

CC(=O)O[C@H](CC(=O)[O-])C[N+](C)(C)C [ACL, Acetyl L-carnitine]
ALP (alkaline phosphatase) [1]: 8.8 ± 1.1 U/I
GGT (gamma-glutamyl transferase) [1]: 17.2 ± 1.9 U/I
NAG (N-acetyl-β-D-glucosaminidase) [1]: 48.8 ± 5.1 U/I
effect on enzymuria induced by ochratoxin and serum creatinine levels [1]: reduced
Percentage changes vs controls in histamine released (isolated perfused kidney; [3]): 55.8 ± 6.1%
Percentage changes vs controls in histamine released (isolated perfused kidney; [4]): 36.8 ± 3.1%
Percentage changes vs controls in histamine released (isolated perfused kidney; [5]): 12.5 ± 1.5%
effect on histamine release induced by the renal toxic action of lithium (isolated perfused kidney): reduced
Urea (plasma) ([2]; 100 mg/kg (of each drug) i.p.): 104.7 ± 12.4 mg/100 ml
Urea (plasma) ([2]; 100 mg/kg (of each drug) oral): 110.9 ± 21.6 mg/100 ml
Urea (plasma) ([2]; 500 mg/kg (of each drug) i.p.): 98.5 ± 10.6 mg/100 ml
Urea (plasma) ([2]; 500 mg/kg (of each drug) oral): 105.4 ± 29.4 mg/100 ml
effect on the elevated plasma urea and creatinine concentrations [2]: only slight changes

CCC(=O)O[C@H](CC(=O)[O-])C[N+](C)(C)C [PC, Propionyl L-carnitine]
ALP (alkaline phosphatase) [1]: 7.5 ± 0.9 U/I
GGT (gamma-glutamyl transferase) [1]: 16.5 ± 2.2 U/I
NAG (N-acetyl-β-D-glucosaminidase) [1]: 44.2 ± 4.5 U/I
effect on enzymuria induced by ochratoxin and serum creatinine levels [1]: reduced
Percentage changes vs controls in histamine released (isolated perfused kidney; [3]): 45.8 ± 4.5%
Percentage changes vs controls in histamine released (isolated perfused kidney; [4]): 30.4 ± 2.9%
Percentage changes vs controls in histamine released (isolated perfused kidney; [5]): 10.4 ± 0.9%
effect on histamine release induced by the renal toxic action of lithium (isolated perfused kidney): reduced
Urea (plasma) ([2]; 100 mg/kg (of each drug) i.p.): 100.5 ± 9.8 mg/100 ml
Urea (plasma) ([2]; 100 mg/kg (of each drug) oral): 107.4 ± 30.2 mg/100 ml
Urea (plasma) ([2]; 500 mg/kg (of each drug) i.p.): 80.2 ± 6.6 mg/100 ml
Urea (plasma) ([2]; 500 mg/kg (of each drug) oral): 90.2 ± 31.4 mg/100 ml
effect on the elevated plasma urea and creatinine concentrations [2]: only slight changes
